# Measurements: publication PMC11374673, “Discovery of isoquinoline sulfonamides as allosteric gyrase inhibitors with activity against fluoroquinolone-resistant bacteria” (Nature Chemistry, 2024)
# Where “and” joins values, the source holds several entries; their conditions need not be identical. Equal values may be shown once. Read-outs that look alike come from different tables or passages of the source.
# Columns and labels:
# [1] = system: HEK293T; test: Cytotoxicity assay (MTT); assay type: cell-based, human; settings: for MTT data (raw readout) / MTT data (raw reading): HEK293T; for IC50: 24 h, MTT
# Method: (§1) HepG2 (ATCC HB-8065) and HEK293T (ATCC CRL-3216) cell lines were cultured at 37 °C and 7% CO2 in Dulbecco’s modified Eagle medium (Sigma-Aldrich, D6546) with GlutaMax, penicillin (100 µg ml^−1), streptomycin (100 µg ml^−1) and 10% fetal calf serum. Cells were passaged twice a week by first detaching using 0.05% trypsin in phosphate-buffered saline (PBS) and then diluting to appropriate confluence. Compound cytotoxicity was evaluated using the standard (3-(4,5-dimethylthiazol-2-yl)-2,5-diphenyltetrazolium bromide (MTT) assay protocol (MTT assay protocol for cell viability and proliferation, Merck) with slight changes. HepG2 and HEK293T cells were seeded at a density of 1.5 × 10^4 cells per well in a clear 96-well tissue culture treated plate in a final volume of 100 µl in Dulbecco’s modified Eagle medium, supplemented with fetal bovine serum (1%), GlutaMax and penicillin/streptomycin. Cells were incubated for 24 h at 37 °C, 7% CO2 to allow cells to attach to the plates. […] Incubation was done for 24 h at 37 °C, 7% CO2. After the incubation, MTT was added to each well at a final concentration of 0.40 mg ml^−1. The plates were then incubated for 2 h at 37 °C, 7% CO2. Medium was carefully removed via suction, and purple formazan crystals were resuspended in 100 µl DMSO. Absorbance was read at 570 nm using a Clariostar plate reader with MARS (V4.20). The data were then analysed with GraphPad Prism software. IC50 values were calculated using non-linear fitted curve with variable slope settings, with values adjusted for background (plotted absorbance (ABS)sample = (ABSsample – ABSbackground) / (ABSvehicle – ABSbackground)). Technical triplicates for each condition were used, along with biological duplicates.
# [2] = system: HepG2; test: Cytotoxicity assay (MTT); assay type: cell-based, human; settings: for IC50: Homo sapiens, HepG2, 24 h, MTT, 24 h
# Method: as §1
# [3] = system: E. coli W3110; test: MIC by broth microdilution; assay type: cell-based, Escherichia coli; settings: for MIC: broth microdilution, read-out: MIC E. coli W3110
# Method: (§2) MIC was determined by broth microdilution. Single-colony cultures were grown to exponential phase (OD600 of 0.5) aerobically at 37 °C. In case of strains from the Keio collection, 50 µg ml^−1 kanamycin was supplemented to the media to ascertain a homogeneous population. The bacterial suspensions were diluted 100-fold in CAMHB and 50 µl was added to a twofold serial dilution series of test compounds (50 µl per well) in polypropylene 96-well microtitre plates to reach a volume of 100 µl. The plates were sealed with breathable membranes and incubated overnight at 37 °C with constant shaking (600 r.p.m.).
# [4] = system: K. pneumoniae ATCC 29665; test: MIC by broth microdilution; assay type: cell-based, Klebsiella pneumoniae; settings: Klebsiella pneumoniae, ATCC29665, broth microdilution; read-out: MIC K. pneumoniae ATCC 29665
# Method: as §2
smiles,measurement,setting,value
O=S(=O)(NCCNCc1ccc(-c2ccc(F)cc2)cc1)c1cccc2cnccc12 [Compound 59],MTT data (raw readout),"[1]; 0.023 uM, experiment n = 1, technical triplicates",1.333 and 1.279 and 1.355
same,MTT data (raw readout),"[1]; 0.023 uM, experiment n = 2, technical triplicates",1.390 and 1.481 and 1.407
same,MTT data (raw readout),"[1]; 0.068 uM, experiment n = 1, technical triplicates",1.383 and 1.359
same,MTT data (raw readout),"[1]; 0.068 uM, experiment n = 2, technical triplicates",1.383 and 1.292 and 1.538
same,MTT data (raw readout),"[1]; 0.21 uM, experiment n = 1, technical triplicates",1.318 and 1.351 and 1.256
same,MTT data (raw readout),"[1]; 0.21 uM, experiment n = 2, technical triplicates",1.291 and 1.248 and 1.339
same,MTT data (raw readout),"[1]; 0.62 uM, experiment n = 1, technical triplicates",1.028 and 1.043 and 1.203
same,MTT data (raw readout),"[1]; 0.62 uM, experiment n = 2, technical triplicates",1.142 and 1.303 and 1.183
same,MTT data (raw readout),"[1]; 1.85 uM, experiment n = 1, technical triplicates",0.845 and 0.882 and 0.691
same,MTT data (raw readout),"[1]; 1.85 uM, experiment n = 2, technical triplicates",0.871 and 0.885 and 0.773
same,MTT data (raw readout),"[1]; 5.6 uM, experiment n = 1, technical triplicates",0.197 and 0.226 and 0.189
same,MTT data (raw readout),"[1]; 5.6 uM, experiment n = 2, technical triplicates",0.227 and 0.205 and 0.278
same,MTT data (raw readout),"[1]; 16.7 uM, experiment n = 1, technical triplicates",0.068 and 0.048 and 0.059
same,MTT data (raw readout),"[1]; 50 uM, experiment n = 1, technical triplicates",0.036 and 0.035 and 0.032
same,MTT data (raw readout),"[1]; 50 uM, experiment n = 2, technical triplicates",0.032 and 0.034 and 0.028
same,IC50,"[1]; Homo sapiens, HEK-293T",1.7 µM
same,IC50,[1],2.6 µM
same,MTT data (raw readout),"[2]; HepG2, 0.023 uM, experiment n = 1, technical triplicates",1.000 and 0.992 and 0.989
same,MTT data (raw readout),"[2]; HepG2, 0.023 uM, experiment n = 2, technical triplicates",0.854 and 0.789 and 0.774
same,MTT data (raw readout),"[2]; HepG2, 0.068 uM, experiment n = 1, technical triplicates",0.940 and 0.990 and 0.945
same,MTT data (raw readout),"[2]; HepG2, 0.068 uM, experiment n = 2, technical triplicates",0.876 and 0.808 and 0.777
same,MTT data (raw readout),"[2]; HepG2, 0.21 uM, experiment n = 1, technical triplicates",0.977 and 1.029 and 0.973
same,MTT data (raw readout),"[2]; HepG2, 0.21 uM, experiment n = 2, technical triplicates",0.822 and 0.816 and 0.771
same,MTT data (raw readout),"[2]; HepG2, 0.62 uM, experiment n = 1, technical triplicates",0.952 and 1.030 and 0.967
same,MTT data (raw readout),"[2]; HepG2, 0.62 uM, experiment n = 2, technical triplicates",0.836 and 0.820 and 0.813
same,MTT data (raw readout),"[2]; HepG2, 1.85 uM, experiment n = 1, technical triplicates",0.913 and 0.914 and 0.948
same,MTT data (raw readout),"[2]; HepG2, 1.85 uM, experiment n = 2, technical triplicates",0.795 and 0.749 and 0.743
same,IC50,[2],1.7 µM
same,MIC,"[3]; Escherichia coli, W3110, WT",3.1 µM
same,MIC,[3]; WT,3.125 µM
same,antimicrobial activity,[3]; relative to parent compound,twofold increase in potency
same,MIC,[4],6.25 µM
O=S(=O)(NCCNCc1ccc(-c2ccc(Cl)cc2)cc1)c1cccc2cnccc12 [Compound 61],MTT data (raw reading),"[1]; 0.023 uM, n = 1",0.895 and 1.117 and 0.888
same,MTT data (raw reading),"[1]; 0.023 uM, n = 2",0.606 and 0.823 and 0.767
same,MTT data (raw reading),"[1]; 0.068 uM, n = 1",1.228 and 1.100 and 1.289
same,MTT data (raw reading),"[1]; 0.068 uM, n = 2",0.594 and 0.790 and 0.797
same,MTT data (raw reading),"[1]; 0.21 uM, n = 1",1.193 and 1.192 and 1.600
same,MTT data (raw reading),"[1]; 0.21 uM, n = 2",0.478 and 0.738 and 0.728
same,MTT data (raw reading),"[1]; 0.62 uM, n = 1",0.992 and 0.937 and 0.903
same,MTT data (raw reading),"[1]; 0.62 uM, n = 2",0.540 and 0.686 and 0.703
same,MTT data (raw reading),"[1]; 1.85 uM, n = 1",0.640 and 0.552 and 0.507
same,MTT data (raw reading),"[1]; 1.85 uM, n = 2",0.345 and 0.480 and 0.465
same,MTT data (raw reading),"[1]; 5.6 uM, n = 1",0.114 and 0.126 and 0.094
same,MTT data (raw reading),"[1]; 5.6 uM, n = 2",0.048 and 0.047 and 0.040
same,MTT data (raw reading),"[1]; 16.7 uM, n = 1",0.021 and 0.012 and 0.016
same,IC50,"[1]; Homo sapiens, HEK-293T",1 µM
same,MTT data (raw reading),"[2]; HepG2, 0.023 uM, n = 1",0.473 and 0.481 and 0.514
same,MTT data (raw reading),"[2]; HepG2, 0.023 uM, n = 2",0.517 and 0.561 and 0.567
same,MTT data (raw reading),"[2]; HepG2, 0.068 uM, n = 1",0.534 and 0.501 and 0.482
same,MTT data (raw reading),"[2]; HepG2, 0.068 uM, n = 2",0.479 and 0.534 and 0.570
same,MTT data (raw reading),"[2]; HepG2, 0.21 uM, n = 1",0.462 and 0.484 and 0.480
same,MTT data (raw reading),"[2]; HepG2, 0.21 uM, n = 2",0.576 and 0.558 and 0.573
same,MTT data (raw reading),"[2]; HepG2, 0.62 uM, n = 1",0.454 and 0.449
same,MTT data (raw reading),"[2]; HepG2, 0.62 uM, n = 2",0.464 and 0.502 and 0.467
same,MTT data (raw reading),"[2]; HepG2, 1.85 uM, n = 1",0.401 and 0.414 and 0.404
same,MTT data (raw reading),"[2]; HepG2, 1.85 uM, n = 2",0.454 and 0.456 and 0.471
same,MTT data (raw reading),"[2]; HepG2, 5.6 uM, n = 1",0.017 and 0.021 and 0.022
same,MTT data (raw reading),"[2]; HepG2, 5.6 uM, n = 2",0.042 and 0.022 and 0.021
same,MTT data (raw reading),"[2]; HepG2, 16.7 uM, n = 1",0.009 and 0.013
same,IC50,[2],2.8 µM
same,MIC,"[3]; Escherichia coli, W3110, WT",6.25 µM
same,MIC,[4],> 50 µM
